Source: PMC4620045 (Journal of pharmacokinetics and pharmacodynamics, 2015)
Like-named read-outs stand apart in the source and are kept apart here.

Key:
[1] = Global PBPK model fitted to mouse plasma and tissue PK data; format: in vivo, mice; settings: for Nonspecific binding (NSti): mice, model estimate
[2] = system: enzymes responsible for its elimination; settings: cited from earlier work
[3] = format: in vivo, BALB/c mice; settings: male, BALB/c, mouse, iv
[4] = Kidney (renal clearance CLr); fixed to reported GFR value in mice; cited from earlier work
plasma proteins = settings: cited from earlier work
[5] = monkeys; cited from earlier work

## CC(C)C[C@H](NC(=O)[C@H](Cc1ccccc1)NC(=O)c1cnccn1)B(O)O [Bortezomib]
[1]; Bone
  Nonspecific binding (NSti): 1.06
[1]; Erythrocyte
  Nonspecific binding (NSti): 7.57
[1]; Kidney
  Nonspecific binding (NSti): 9.60
[1]; Liver
  Nonspecific binding (NSti): 1.54
[1]; Lung
  Nonspecific binding (NSti): 2.54
[1]; Muscle
  Nonspecific binding (NSti): 1.17
[1]; Remainder compartment
  Nonspecific binding (NSti): 96.76
[1]; Spleen
  Nonspecific binding (NSti): 3.68
[1]; male, BALB/c, mouse, liver, intravenous
  clearance: 0.0063 mL/min
[2]
  Induction or inhibition of enzymes responsible for its elimination: not an inducer or inhibitor
[3]; bone, 0.25 mg/kg
  AUC(0-inf): 23.7 µM·h
  Kp: 26.9
  half-life: 277 h
[3]; bone, 1 mg/kg
  AUC(0-inf): 27.2 µM·h
  Kp: 1.4
  half-life: 173 h
[3]; kidney, 0.25 mg/kg
  AUC(0-inf): 24.7 µM·h
  half-life: 59 h
[3]; kidney, 1 mg/kg
  AUC(0-inf): 180 µM·h
  half-life: 204 h
[3]; liver, 0.25 mg/kg
  AUC(0-inf): 17 µM·h
  half-life: 69 h
[3]; liver, 1 mg/kg
  AUC(0-inf): 33.3 µM·h
  half-life: 105 h
[3]; lung, 0.25 mg/kg
  AUC(0-inf): 39.3 µM·h
  Kp: 44.7
  half-life: 178 h
[3]; lung, 1 mg/kg
  AUC(0-inf): 60.9 µM·h
  Kp: 3.1
  half-life: 133 h
[3]; muscle, 0.25 mg/kg
  AUC(0-inf): 5.7 µM·h
  Kp: 6.4
  half-life: 204 h
[3]; muscle, 1 mg/kg
  AUC(0-inf): 17.3 µM·h
  Kp: 0.9
  half-life: 112 h
[3]; plasma, 0.25 mg/kg
  AUC(0-inf): 0.9 µM·h
  Kp: 1
  half-life: 96 h
[3]; plasma, 1 mg/kg
  AUC(0-inf): 19.4 µM·h
  Kp: 1
  half-life: 267 h
[3]; spleen, 0.25 mg/kg
  AUC(0-inf): 103 µM·h
  Kp: 117
  half-life: 248 h
[3]; spleen, 1 mg/kg
  AUC(0-inf): 107 µM·h
  Kp: 5.5
  half-life: 131 h
[3]; whole blood, 0.25 mg/kg
  AUC(0-inf): 46.4 µM·h
  Kp: 52.8
  half-life: 182 h
[3]; whole blood, 1 mg/kg
  AUC(0-inf): 92 µM·h
  Kp: 4.8
  half-life: 173 h
[4]
  clearance: 0.28 mL/min
Plasma proteins; fixed in PBPK model
  Plasma protein unbound fraction (fu): 0.17
Plasma proteins; linear binding at therapeutic concentrations
  Binding to plasma proteins: approximately 83%
[5]
  Renal clearance contribution to elimination: approximately 25%
